Results reported in patent US20100292266A1, “Oxazolyl Piperidine Modulators of Fatty Acid Amide Hydrolase” (priority 2006, published 2010).
pIC50: −log10 of the molar value.

test system: not given; assay: not given; conditions: Kathuria 2003; cited from earlier work

SMILES | analgesic efficacy in rat formalin test
NC(=O)c1cccc(-c2cccc(OC(=O)NC3CCCCC3)c2)c1 [URB-597] | analgesic efficacy

test system: not given; assay: not given; conditions: rats; Kathuria 2003; cited from earlier work

SMILES | efficacy in zero plus maze model of anxiety
NC(=O)c1cccc(-c2cccc(OC(=O)NC3CCCCC3)c2)c1 [URB-597] | efficacy

test system: not given; assay: not given; conditions: rats; WO 02/087569; cited from earlier work

SMILES | analgesic effect in Chung spinal nerve ligation model of neuropathic pain
Cc1nc(-c2ccccc2)c(-c2ccccc2)n1CCCCCCNC(=O)Oc1ccccc1F [BMS-1] | analgesic effect

test system: not given; assay: not given; conditions: rats; WO 02/087569; cited from earlier work; remark: another data set of the same source

SMILES | analgesic effect in Hargraves test of acute thermal nociception
Cc1nc(-c2ccccc2)c(-c2ccccc2)n1CCCCCCNC(=O)Oc1ccccc1F [BMS-1] | analgesic effect

biological target: T1, Rat FAAH (Rattus norvegicus, UniProt P97612); assay: Assay Method 2: FAAH assay, 3H-anandamide hydrolysis in cell homogenate; format: biochemical; conditions: transfected SK-N-MC cell homogenate, 80 nM 3H-AEA, 1 h rt, > = solubility limit or highest concentration tested
T1 construct: expressed in transfected cells
T1 sequence (P97612 1-579): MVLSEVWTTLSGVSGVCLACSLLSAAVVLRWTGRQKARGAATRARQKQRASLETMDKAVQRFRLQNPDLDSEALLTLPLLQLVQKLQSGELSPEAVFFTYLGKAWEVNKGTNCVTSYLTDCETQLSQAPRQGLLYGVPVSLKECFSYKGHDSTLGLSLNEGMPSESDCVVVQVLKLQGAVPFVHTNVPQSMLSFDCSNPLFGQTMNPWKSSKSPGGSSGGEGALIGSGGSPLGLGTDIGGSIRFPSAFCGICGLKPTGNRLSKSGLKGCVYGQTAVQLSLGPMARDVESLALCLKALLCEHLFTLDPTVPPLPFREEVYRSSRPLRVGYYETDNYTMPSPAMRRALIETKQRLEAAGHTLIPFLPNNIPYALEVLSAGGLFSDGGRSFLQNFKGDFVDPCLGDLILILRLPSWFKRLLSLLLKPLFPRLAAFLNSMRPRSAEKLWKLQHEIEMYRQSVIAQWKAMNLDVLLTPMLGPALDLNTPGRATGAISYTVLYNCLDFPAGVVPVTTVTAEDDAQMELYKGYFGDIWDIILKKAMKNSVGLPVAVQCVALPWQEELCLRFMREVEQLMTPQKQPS
Procedure, shortened: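 Homogenate of SK-N-MC cells stably transfected with rat FAAH cDNA (G418-selected clones) incubated with compound and 80 nM final [3H]-anandamide for 1 h. Released [3H]-ethanolamine separated on activated charcoal filters by centrifugation and counted by scintillation. ">" values mark solubility limit or top concentration tested.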

SMILES | pIC50
O=C(c1ncco1)C1CCN(C(=O)CCc2ccccc2)CC1 [Example 14, 1-[4-(Oxazole-2-carbonyl)-piperidin-1-yl]-3-phenyl-propan-1-one] | 5.05
COc1cccc(CN2CCC(C(=O)c3ncco3)CC2)c1 [Example 62, [1-(3-Methoxy-benzyl)-piperidin-4-yl]-oxazol-2-yl-methanone] | 5.89
CCOc1cccc(CN2CCC(C(=O)c3ncco3)CC2)c1 [Example 29, [1-(3-Ethoxy-benzyl)-piperidin-4-yl]-oxazol-2-yl-methanone] | 5.85
O=C(c1ncco1)C1CCN(Cc2ccc3[nH]ccc3c2)CC1 [Example 42] | < 5.00
O=C(c1ncco1)C1CCN(Cc2ccc(C(F)(F)F)cc2)CC1 [Example 19] | 7.82
O=C(c1ncco1)C1CCN(Cc2ccc3cccc(Cl)c3n2)CC1 [Example 75, [1-(8-Chloro-quinolin-2-ylmethyl)-piperidin-4-yl]-oxazol-2-yl-methanone] | 8.40
O=C(c1ncco1)C1CCN(Cc2ccc3cccc(O)c3n2)CC1 [Example 79, [1-(8-Hydroxy-quinolin-2-ylmethyl)-piperidin-4-yl]-oxazol-2-yl-methanone] | 7.40
O=C(c1ncco1)C1CCN(Cc2ccccc2Cl)CC1 [Example 33, [1-(2-Chloro-benzyl)-piperidin-4-yl]-oxazol-2-yl-methanone] | 6.05
Cn1ccc2cc(CN3CCC(C(=O)c4ncco4)CC3)ccc21 [Example 39, [1-(1-Methyl-1H-indol-5-ylmethyl)-piperidin-4-yl]-oxazot-2-yl-methanone] | 5.70
O=C(c1ncco1)C1CCN(Cc2cc3ccccc3o2)CC1 [Example 55, (1-Benzofuran-2-ylmethyl-piperidin-4-yl)-oxazol-2-yl-methanone] | 6.98
Cc1ccccc1CN1CCC(C(=O)c2ncco2)CC1 [Example 66, [1-(2-Methyl-benzyl)-piperidin-4-yl]-oxazol-2-yl-methanone] | 6.22
O=C(c1ncco1)C1CCN(Cc2cc3ccc(Cl)cc3nc2Cl)CC1 [Example 70, [1-(2,7-Dichloro-quinolin-3-ylmethyl)-piperidin-4-yl]-oxazol-2-yl-methanone] | 6.54
O=C(c1ncco1)C1CCN(Cc2cccc(OC(F)(F)F)c2)CC1 [Example 37, Oxazol-2-yl-[1-(3-trifluoromethoxy-benzyl)-piperidin-4-yl]-methanone] | 7.40
COc1ccc(CN2CCC(C(=O)c3ncco3)CC2)cc1OC [Example 43, [1-(3,4-Dimethoxy-benzyl)-piperidin-4-yl]-oxazol-2-yl-methanone] | 5.22

biological target: T2, FAAH (Homo sapiens, UniProt O00519); assay: Assay Method 1: FAAH assay, 3H-anandamide hydrolysis in cell homogenate; format: biochemical; parameters: expressed in transfected cells; conditions: T84 or transfected SK-N-MC cell homogenate, 80 nM 3H-AEA, 1 h rt, > = solubility limit or highest concentration tested
T2 sequence (O00519 1-579): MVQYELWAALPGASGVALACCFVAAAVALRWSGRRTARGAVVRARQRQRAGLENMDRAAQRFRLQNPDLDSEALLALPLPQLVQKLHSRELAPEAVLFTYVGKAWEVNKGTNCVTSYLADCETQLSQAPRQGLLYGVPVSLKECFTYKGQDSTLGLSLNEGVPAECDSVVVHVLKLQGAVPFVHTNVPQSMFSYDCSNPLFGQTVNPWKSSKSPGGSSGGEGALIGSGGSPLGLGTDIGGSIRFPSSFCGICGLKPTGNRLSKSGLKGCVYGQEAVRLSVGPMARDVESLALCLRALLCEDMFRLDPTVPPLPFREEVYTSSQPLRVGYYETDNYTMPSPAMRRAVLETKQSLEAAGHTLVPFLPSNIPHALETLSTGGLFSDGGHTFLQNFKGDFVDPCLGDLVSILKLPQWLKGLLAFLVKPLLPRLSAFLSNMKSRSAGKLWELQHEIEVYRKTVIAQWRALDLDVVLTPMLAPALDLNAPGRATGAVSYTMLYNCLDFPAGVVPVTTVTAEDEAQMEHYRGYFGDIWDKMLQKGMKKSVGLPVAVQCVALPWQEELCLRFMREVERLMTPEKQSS
Procedure, shortened: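 Homogenate of SK-N-MC cells stably transfected with human FAAH, incubated with compound and 80 nM final ³H-anandamide for 1 h at rt. Released ³H-ethanolamine separated from substrate on activated charcoal and counted by scintillation. ">" values reflect solubility limit or top concentration tested.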

SMILES | pIC50
O=C(c1ncco1)C1CCN(C(=O)CCc2ccccc2)CC1 [Example 14, 1-[4-(Oxazole-2-carbonyl)-piperidin-1-yl]-3-phenyl-propan-1-one] | 5.80
COc1cccc(CN2CCC(C(=O)c3ncco3)CC2)c1 [Example 62, [1-(3-Methoxy-benzyl)-piperidin-4-yl]-oxazol-2-yl-methanone] | 6.61
CCOc1cccc(CN2CCC(C(=O)c3ncco3)CC2)c1 [Example 29, [1-(3-Ethoxy-benzyl)-piperidin-4-yl]-oxazol-2-yl-methanone] | 6.77
O=C(c1ncco1)C1CCN(Cc2ccc3[nH]ccc3c2)CC1 [Example 42] | 6.28
O=C(c1ncco1)C1CCN(Cc2ccc(C(F)(F)F)cc2)CC1 [Example 19] | 8.00
O=C(c1ncco1)C1CCN(Cc2ccc3cccc(Cl)c3n2)CC1 [Example 75, [1-(8-Chloro-quinolin-2-ylmethyl)-piperidin-4-yl]-oxazol-2-yl-methanone] | 8.40
O=C(c1ncco1)C1CCN(Cc2ccc3cccc(O)c3n2)CC1 [Example 79, [1-(8-Hydroxy-quinolin-2-ylmethyl)-piperidin-4-yl]-oxazol-2-yl-methanone] | 7.92
O=C(c1ncco1)C1CCN(Cc2ccccc2Cl)CC1 [Example 33, [1-(2-Chloro-benzyl)-piperidin-4-yl]-oxazol-2-yl-methanone] | 6.81
Cn1ccc2cc(CN3CCC(C(=O)c4ncco4)CC3)ccc21 [Example 39, [1-(1-Methyl-1H-indol-5-ylmethyl)-piperidin-4-yl]-oxazot-2-yl-methanone] | 7.10
O=C(c1ncco1)C1CCN(Cc2cc3ccccc3o2)CC1 [Example 55, (1-Benzofuran-2-ylmethyl-piperidin-4-yl)-oxazol-2-yl-methanone] | 7.92
Cc1ccccc1CN1CCC(C(=O)c2ncco2)CC1 [Example 66, [1-(2-Methyl-benzyl)-piperidin-4-yl]-oxazol-2-yl-methanone] | 6.76
O=C(c1ncco1)C1CCN(Cc2cc3ccc(Cl)cc3nc2Cl)CC1 [Example 70, [1-(2,7-Dichloro-quinolin-3-ylmethyl)-piperidin-4-yl]-oxazol-2-yl-methanone] | 6.30
O=C(c1ncco1)C1CCN(Cc2cccc(OC(F)(F)F)c2)CC1 [Example 37, Oxazol-2-yl-[1-(3-trifluoromethoxy-benzyl)-piperidin-4-yl]-methanone] | 7.60
COc1ccc(CN2CCC(C(=O)c3ncco3)CC2)cc1OC [Example 43, [1-(3,4-Dimethoxy-benzyl)-piperidin-4-yl]-oxazol-2-yl-methanone] | 5.52

test system: not given; assay: not given; conditions: rat; Kathuria 2003; cited from earlier work

SMILES | analgesic efficacy in rat hot plate test
NC(=O)c1cccc(-c2cccc(OC(=O)NC3CCCCC3)c2)c1 [URB-597] | analgesic efficacy
